Reference: patent US10603265B2, “Skin whitening peptide agents” (INSTITUT CURIE, priority 2014, dated 2020)
Where “and” joins values, the source holds several entries; their conditions need not be identical. Equal entries are not always repeated. Entries after “also recorded” stand apart in the source; their conditions may differ.

Experiments:
MNT-1 cells [1] = experiment: Melanin assay on MNT-1 cells; format: cell-based, human; conditions: MNT1 melanocytes, 3 days, 10 μM peptide, OD 492 nm, normalized to H2O control
Experimental: FIG. 4: MNT1 melanocytes were cultured 3 days with 10 μM of QK-5 peptide (SEQ ID NO: 16) or H2O as a control. Melanin estimation was performed as previously described (Delevoye et al., J Cell Biol. 2009 Oct. 19; 187(2):247-64), and normalized to the control. QK-5 peptide incubation decreased the intracellular melanin content about 40±0.02%. Data are presented as mean±standard deviation. *; p value (two tailed)<0.05.
The skin whitening activity of the peptide may further be determined by measuring the melanin content of melanocytic cells such as MNT-1 cells, incubated with the peptide. For example, the assay may be carried out as follow: at day 1, 10^5 MNT-1 cells are seeded in 6-well plates; From day 2 to day 4, cells are grown in medium comprising 10 μM of peptides; at day 5, cells are disrupted by sonication in 50 mM Tris-HCl, pH 7.4, 2 mM EDTA, 150 mM NaCl, 1 mM dithiothreitol, and protease inhibitors. Pigment is pelleted at 20,000 g for 15 min at 4° C., rinsed once in ethanol/ether (1:1), and dissolved in 2 M NaOH/20% dimethylsulfoxide at 60° C.; Melanin content is measured as optical density at 492 nm.
At day 1, 10^5 cells were seeded in 6-well plates. From day 2 to day 4, cells were grown in medium containing 1 or 10 μg of peptides. Medium was changed every day. […] Melanin content was measured as optical density at 492 nm.

[2] = system: 3D human reconstructed pigmented epidermis; experiment: Melanin assay on reconstructed human pigmented epidermis; format: cell-based; conditions: 10 days, 30 μM peptide, OD 492 nm, normalized to control
Experimental: FIG. 10: Melanin quantitation on 3D human reconstructed pigmented epidermis incubated 10 days with 30 μM of QA-3 peptides or AK-3 peptides. Synthetic epidermis were removed from their insert and dissolved in 400 μl of Solvable (Perkin Elmer) for 1 h at 100° C. Melanin quantification was performed on 200 μl by measuring the optical density at 492 nm. Melanin quantifications were normalized to the control. Both QA-3 and AK-3 peptides decreased about 22.5±13% or 21±10% the melanin production by synthetic skin epidermis. Data are presented as mean±standard deviation. *; p value (two tailed)<0.1.
Reconstructed human epidermal of phototype VI (Sterlab) were received at day 10 and incubated with the manufacturer's growth medium supplemented from day 11 to day 21 with 30 μg of peptides. As recommended, medium was changed every day. At day 21, the epidermis was separated from the insert, digested by incubation in 400 μl of Solvable (PerkinElmer) at 98° C. for 1 h. Melanin content was measured as optical density at 492 nm.

AP-1/KIF13A interaction = target: T1, AP-1/KIF13A interaction (Homo sapiens, UniProt Q9H1H9); experiment: AP-1 immunoprecipitation / KIF13A western blot, MNT-1 melanocyte lysates incubated with peptides; format: biochemical; conditions: MNT-1 melanocytic cell lysates, 1 μg peptide, KIF13A/AP-1 band intensity normalized to control
T1 construct: endogenous in cells; host or cells: MNT-1 (MNT1) human melanocytic cells
Experimental: FIG. 2: γ-adaptin subunit of the human AP-1 complex was immunoprecipitated from melanocytes (MNT1) cell lysates in presence or not of 1 μg of the indicated peptides (peptides SS-5, EK-11 and QK-5: SEQ ID NO: 28, 1 and 16, respectively) for 2 h at 4° C. under rotation. […] EK-11 and SS-5 peptides were used as a positive and negative controls, respectively. Molecular weight in kDa.
FIG. 3: Intensity of the immunoprecipitated KIF13A and AP-1 bands shown in FIG. 2 were quantified using ImageJ. KIF13A intensity were divided by its corresponding AP-1 intensity and normalized to the control (lysates incubated without peptides, first lane).
Cells at 80% of confluency were washed in cold PBS and lysed on ice in lysis buffer (50 mM Tris, 150 mM NaCl, 0.1% Triton X-100, 10 mM EDTA, pH 7.2, and protease inhibitor cocktail, Roche). Lysates were incubated overnight with 1 μg of peptides. Lysates were first precleared using protein G agarose beads for 1 h at 4° C. under rotation. Supernatants were collected and incubated with protein G agarose beads with 1 μg mouse monoclonal IgG2b anti-CD9 for 1 h at 4° C. under rotation. Precleared supernatants were incubated with beads coated earlier with 1 μg mouse monoclonal IgG2b anti-γ-adaptin for 2 h at 4° C. under rotation. As negative control, 1 μg mouse monoclonal IgG2b anti-CD9 was used to immunoprecipitate the lysate. […]

[3] = target: T2, interaction of human AP-1 with human KIF13A (Homo sapiens, UniProt Q9H1H9); experiment: AP-1 immunoprecipitation / KIF13A western blot, HeLa cell lysates incubated with peptides; format: biochemical; conditions: 1 μg peptide, vs control without peptide
T2 construct: incubating independently g of each 12 peptides with HeLa cell lysates (non pigmented cells); endogenous in cells; host or cells: HeLa cell lysate
Experimental: FIG. 1: γ-adaptin subunit of the human AP-1 complex was immunoprecipitated from HeLa cell lysates in presence or not of 1 μg of the indicated 11 amino acids peptides (peptides AI, QT, GN, EK, EL, WQ; NY, QF, LM, FF, LK and RI: SEQ ID NO: 17, 28, 20, 1, 25, 27, 22, 21, 24, 23, 19 and 26, respectively) for 2 h at 4° C. under rotation. […] Molecular weight in kDa.
Cells at 80% of confluency were washed in cold PBS and lysed on ice in lysis buffer (50 mM Tris, 150 mM NaCl, 0.1% Triton X-100, 10 mM EDTA, pH 7.2, and protease inhibitor cocktail, Roche). Lysates were incubated overnight with 1 μg of peptides. Lysates were first precleared using protein G agarose beads for 1 h at 4° C. under rotation. Supernatants were collected and incubated with protein G agarose beads with 1 μg mouse monoclonal IgG2b anti-CD9 for 1 h at 4° C. under rotation. Precleared supernatants were incubated with beads coated earlier with 1 μg mouse monoclonal IgG2b anti-γ-adaptin for 2 h at 4° C. under rotation. As negative control, 1 μg mouse monoclonal IgG2b anti-CD9 was used to immunoprecipitate the lysate.
After five washes in cold lysis buffer and three washes in PBS, immunoprecipitated proteins bound to the beads were incubated in sample buffer with reducing agent, boiled for 10 min at 95° C., and fractionated by SDS-PAGE using Nupage (3-8%) Tris-acetate gels (Invitrogen). […]

[4] = target: T3, co-localization of KIF13A with AP-1 (Homo sapiens, UniProt Q9H1H9); experiment: Immunofluorescence colocalization of AP-1 with KIF13A in MNT-1 melanocytes; format: cell-based; conditions: MNT1 melanocytes, 3 days, 10 μM peptide, vs H2O control
T3 construct: endogenous in cells; host or cells: MNT-1 (MNT1) human melanocytic cells
Experimental: FIG. 5: MNT1 melanocytes were seeded on glass coverslips and cultured 3 days with 10 μM of QK-5 peptide (SEQ ID NO: 16) or H2O as a control. Cells were fixed in cold methanol and co-stained using a rabbit anti-human KIF13A and a mouse anti-human γ-adaptin as primary antibodies and goat anti-rabbit or mouse coupled to Alexa-488 or 546 (Molecular Probes). Coverslips were mounted in Dabco (Invitrogen) medium and images were acquired on an Eclipse 80i Upright Microscope (Nikon) and deconvoluted. Images are maximum-intensity z projections of up to 15 3D image stacks acquired using ImageJ software. Analysis was performed by quantifying the intensity of overlapping KIF13A and AP-1 pixels and by normalizing them to the control. QK-5 peptide incubation on melanocytes decreased about 84±7% the co-localization of KIF13A with AP-1. Data are presented as mean±standard deviation. ***; p value (two tailed)<0.001.
MNT-1 cells grown on coverslips were incubated for three days in medium containing 10 μg of peptides. Coverslips were rinsed in PBS, fixed in 100% cold methanol for 30 sec, followed by incubation in PBS and 1 mg/ml BSA. […]
Colocalization analysis was performed using ImageJ software. […] Then identical area inside cells were defined and analyzed for quantification.

MNT-1 cells [5] = experiment: Electron microscopy, grading of melanosome stages in MNT-1 cells; format: cell-based, human; conditions: MNT1 melanocytes, 3 days, 10 μM peptide, vs H2O control
Experimental: FIG. 6: MNT1 melanocytes were seeded on glass coverslips and cultured 3 days with 10 μM of QK-5 peptide (SEQ ID NO: 16; bottom panel) or H2O (top panel) as a control. Then cells were rapidly washed in DMEM at room temperature and fixed for 90 min with a mixture of 2.5% glutaraldehyde in 0.1 M cacodylate buffer for 90 min at 4° C., post-fixed with 1% OsO4/1.5% potassium ferrocyanide 45 min at 4° C., dehydrated in ethanol and embedded in Epon resin. Ultrathin (60-70 nm) sections were observed under a CM120 electron microscope (FEI company, Eindoven), equipped with a KeenView camera (Soft Imaging System; SIS, Germany). […] Scale bar: 2 μm.
FIG. 7: Melanosome stages were quantified based on their morphologies on MNT1 melanocytes treated as in FIG. 6. Stages I and II correspond to early non-pigmented melanosomes, melanin pigmentation is initiated in stage III, whereas stage IV is a fully mature and pigmented melanosome. Stages were counted and plotted as percentage of their total number.
Control and peptide-treated MNT-1 cells grown on coverslips for 3 days were fixed with 2.5% glutaraldehyde in 0.1M cacodylate buffer, pH 7.2 post-fixed with 1% OsO4 supplemented with 1.5% Potassium ferrocyanure, dehydrated in ethanol, and embedded in epon. Ultrathin sections were prepared with an Ulltracut UCT ultramicrotome (Leica) and observed under a CM120 electron microscope (FEI company, Eindoven) after counter-staining with uranyl acetate and lead citrate.
Grading of melanosomes stages from I to IV, based on morphology and melanin content, were done independently by two authors. The table below presents the criteria of analyses.

T1 sequence (Q9H1H9 whole entry): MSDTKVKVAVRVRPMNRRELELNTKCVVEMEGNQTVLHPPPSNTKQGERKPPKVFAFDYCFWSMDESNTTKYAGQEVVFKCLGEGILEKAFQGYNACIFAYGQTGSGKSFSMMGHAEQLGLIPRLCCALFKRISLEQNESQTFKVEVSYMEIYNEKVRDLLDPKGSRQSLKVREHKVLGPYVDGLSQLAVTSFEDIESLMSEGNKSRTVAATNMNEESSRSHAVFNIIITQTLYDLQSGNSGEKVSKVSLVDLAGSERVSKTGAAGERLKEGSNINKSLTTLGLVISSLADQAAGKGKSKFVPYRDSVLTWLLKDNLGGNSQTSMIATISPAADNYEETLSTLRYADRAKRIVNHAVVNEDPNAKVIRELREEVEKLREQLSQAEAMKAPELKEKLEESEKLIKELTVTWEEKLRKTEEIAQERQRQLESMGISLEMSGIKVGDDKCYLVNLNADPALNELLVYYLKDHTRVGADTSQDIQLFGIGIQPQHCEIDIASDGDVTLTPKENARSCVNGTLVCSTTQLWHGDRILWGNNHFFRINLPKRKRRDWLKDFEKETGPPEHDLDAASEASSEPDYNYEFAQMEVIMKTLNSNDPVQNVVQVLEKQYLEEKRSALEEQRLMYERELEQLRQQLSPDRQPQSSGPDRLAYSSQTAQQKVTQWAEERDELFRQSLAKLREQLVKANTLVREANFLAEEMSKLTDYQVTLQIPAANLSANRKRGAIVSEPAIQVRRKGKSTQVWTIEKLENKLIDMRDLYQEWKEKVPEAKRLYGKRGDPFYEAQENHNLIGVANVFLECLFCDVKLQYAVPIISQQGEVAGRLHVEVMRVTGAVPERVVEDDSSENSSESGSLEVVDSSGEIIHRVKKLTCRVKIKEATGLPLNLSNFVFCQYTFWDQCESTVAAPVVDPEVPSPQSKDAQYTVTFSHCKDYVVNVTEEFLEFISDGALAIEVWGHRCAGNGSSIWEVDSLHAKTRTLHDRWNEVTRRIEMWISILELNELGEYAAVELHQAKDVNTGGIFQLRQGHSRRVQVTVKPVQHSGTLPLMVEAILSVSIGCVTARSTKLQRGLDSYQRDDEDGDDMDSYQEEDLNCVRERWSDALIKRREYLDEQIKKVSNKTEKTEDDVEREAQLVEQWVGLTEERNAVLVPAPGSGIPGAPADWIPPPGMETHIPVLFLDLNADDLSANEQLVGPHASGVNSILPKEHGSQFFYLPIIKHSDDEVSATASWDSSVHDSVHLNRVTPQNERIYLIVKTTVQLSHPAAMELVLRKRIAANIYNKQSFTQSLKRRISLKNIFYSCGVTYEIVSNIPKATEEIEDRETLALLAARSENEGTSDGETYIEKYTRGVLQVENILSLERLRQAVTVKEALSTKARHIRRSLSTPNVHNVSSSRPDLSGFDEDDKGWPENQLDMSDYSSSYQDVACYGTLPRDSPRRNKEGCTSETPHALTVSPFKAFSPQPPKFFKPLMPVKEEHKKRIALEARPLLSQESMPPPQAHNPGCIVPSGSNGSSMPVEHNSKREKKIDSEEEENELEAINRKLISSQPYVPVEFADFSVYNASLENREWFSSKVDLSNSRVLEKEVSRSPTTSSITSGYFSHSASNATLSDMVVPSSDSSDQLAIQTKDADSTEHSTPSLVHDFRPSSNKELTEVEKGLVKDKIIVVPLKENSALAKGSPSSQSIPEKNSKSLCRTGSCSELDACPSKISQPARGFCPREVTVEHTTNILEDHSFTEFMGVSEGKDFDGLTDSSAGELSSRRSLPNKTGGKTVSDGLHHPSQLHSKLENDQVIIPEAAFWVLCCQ
T2 sequence (Q9H1H9 whole entry): as above
T3 sequence (Q9H1H9 whole entry): as above

| Substance | decrease of the intracellular melanin content (MNT-1 cells [1]) | decrease of melanin production / pigmentation of reconstructed epidermis [2] | decrease of the AP-1/KIF13A interaction (AP-1/KIF13A interaction) | decrease of the interaction of AP-1 with KIF13A [3] | decrease of the colocalization of KIF13A with AP-1 [4] | early melanosome Stages (I and II) (MNT-1 cells [5]) | number of Stage III melanosomes (MNT-1 cells [5]) | number of Stage IV (fully mature pigmented) melanosomes (MNT-1 cells [5]) |
| --- | --- | --- | --- | --- | --- | --- | --- | --- |
| AVK [AK-3] | 22±8% and ~21.3±8% | 21±10% | – | – | – | – | – | – |
| EPLNNLQVAVK (listed as Homo sapiens) [EK-11] | – | – | 57.5±8% | about 52.6±7% | – | – | – | – |
| QVAVK (listed as Homo sapiens) [QK-5] | – | – | 56.1±6% | – | about 84±7% | without affecting the early Stages (I and II) | increased their number of Stage III; also recorded: increased the number of less mature and pigmented stages III | decreased their number of Stage IV melanosomes; also recorded: fewer dark-pigmented granules; also recorded: decreased the number of stage IV melanosomes |
